Experimental data published in publication PMC6271079, “Amino Acid Derivatives of Ligustrazine-Oleanolic Acid as New Cytotoxic Agents” (Molecules, 2014).

Key:
HepG2 = test: MTT cytotoxicity assay, HepG2; format: cell-based; details: human hepatoma cells
Method: (§1) The cytotoxicity of these compounds was tested on five cells lines by the standard MTT assay. The human cancer cells lines (HepG2, HT-29, Hela, BGC-823) and MDCK cells were provided by the Chinese Academy of Medical Sciences Peking Union Medical College. The tumor cells were cultured in RPMI 1640 medium supplemented with 10% (v/v) fetal bovine serum and 1% (v/v) penicillin-streptomycin (Thermo Technologies, New York, NY, USA) at 37 °C in a humidified atmosphere with 5% CO2. The growing tumor cells at a density 3 × 10^3 cells/mL were exposed to various concentrations of the tested drugs and incubated in a 96-well microtiter plate for 72 h (37 °C, 5% CO2). After MTT solution (20 μL, 5 mg/mL) was added to each well, the plate was incubated for a further 4 h. Then the media was removed. Formazan crystals were dissolved with DMSO (150 μL). After mixing well, the absorbance was quantified at 490 nm with a BIORAD 550 spectrophotometer (Bio-rad Life Science Development Ltd., Beijing, China). Wells containing no drugs were used to be blanks. The IC50 values were defined as the concentration of compounds that produced a 50% reduction of surviving cells and calculated using the Logit-method. Tumor cell growth inhibitory rate was calculated in the following Equation (1): % inhibition = (1 − Sample group OD/Control group OD) × 100%(1)

HT-29 = test: MTT cytotoxicity assay, HT-29; format: cell-based; details: human colorectal cancer cells
Method: as §1

Hela = test: MTT cytotoxicity assay, Hela; format: cell-based, human; details: 72 h, cervical cancer cells
Method: as §1

MDCK cells [1] = test: MTT toxicity (nephrotoxicity) evaluation, MDCK; format: cell-based; details: 72 h, Madin-Darby canine kidney cells
Method: as §1

BGC-823 = test: MTT cytotoxicity assay, BGC-823; format: cell-based; details: human gastric cancer cells
Method: as §1

[2] = MTT cytotoxicity, summary statements over the cell lines; format: cell-based, human; details: human (HepG2, HT-29, Hela, BGC-823); dog (MDCK), HepG2, HT-29, Hela, BGC-823 and MDCK cells, four cancer cell lines and MDCK, MTT; read-out: IC50, cytotoxicity on both cancer and MDCK cells
Method: as §1

MDCK cells [3] = test: Giemsa staining, MDCK morphology; format: cell-based, canine; details: 2 μM, 72 h, 200×
Method: HepG2 cells in logarithmic growth phase were cultured in 6-well plates for 24 h at 37 °C in a humidified atmosphere with 5% CO2. And then each group was treated with different concentrations of compound 6a for 72 h. The cell culture medium was discarded. And the cells were washed twice with PBS, kept in PBS/ethanol (1:1) for 2 min, fixated in ethanol for 10 min. After removing the ethanol, the cells were stained with Giemsa stain for 2 min and observed under inverted phase-contrast microscope at a magnification of 400×. MDCK cells in logarithmic growth phase were cultured in 6-well plates for 24 h at 37 °C in a humidified atmosphere with 5% CO2. The cells were treated with 2 μM of compound 6a and CDDP for 72 h. The same operation was experimented as described above, and the cells were observed under inverted phase-contrast microscope at a magnification of 200×.

[4] = test system: HepG2, HT-29, Hela and BGC-823; test: MTT cytotoxicity, summary statements over the cell lines; format: cell-based, human; details: Homo sapiens, HepG2, HT-29, Hela and BGC-823, MTT; read-out: IC50, cytotoxicity on all four cancer cell lines
Method: as §1

Row | SMILES | melting point | IC50 (HepG2; HepG2, 72 h) | IC50 (HT-29; HT-29, 72 h) | IC50 (Hela; Homo sapiens) | IC50 (MDCK cells [1]; Canis lupus familiaris, MDCK) | IC50 (BGC-823; BGC-823, 72 h) | IC50 at 72 h [2] | Morphological changes of MDCK cells (Giemsa staining) (MDCK cells [3]) | IC50 (HepG2; 72 h) | IC50 (HT-29; 72 h) | IC50 (Hela) | IC50 (MDCK cells [1]) | IC50 (BGC-823; 72 h) | IC50 [4]
1 | Cc1nc(C)c(COC(=O)[C@]23CCC(C)(C)CC2C2=CCC4[C@@]5(C)CC[C@H](OC(=O)[C@@H](N)CCCCN)C(C)(C)C5CC[C@@]4(C)[C@]2(C)CC3)nc1C (stereo partly drawn) [Compound 6g, 3β-L-Lysine ester olean-12-en-28-oic acid-3,5,6-trimethylpyrazin-2-methyl ester] | 87.5 to 88.2 °C | 2.27 µM | 2.35 µM | 2.38 µM | 2.31 µM | 2.48 µM | < 2.5 µM | – | – | – | – | – | – | –
2 | [NH2][Pt]([NH2])([Cl])[Cl] [CDDP, cisplatin, reference compound] | – | – | – | – | – | – | – | less density, larger volume, lighter nuclear staining and cellular atypia | 2.86 µM | 6.11 µM | 9.84 µM | 3.69 µM | 6.82 µM | –
3 | Cc1nc(C)c(COC(=O)[C@]23CCC(C)(C)CC2C2=CCC4[C@@]5(C)CC[C@H](OC(=O)[C@@H]6CCCN6)C(C)(C)C5CC[C@@]4(C)[C@]2(C)CC3)nc1C (stereo partly drawn) [Compound 6c, 3β-L-Proline ester olean-12-en-28-oic acid-3,5,6-trimethylpyrazin-2-methyl ester] | 89.6 to 91.3 °C | 2.39 µM | 3.21 µM | 6.75 µM | 5.03 µM | 4.98 µM | – | – | – | – | – | – | – | < 8 µM
4 | Cc1nc(C)c(COC(=O)[C@]23CCC(C)(C)CC2C2=CCC4[C@@]5(C)CC[C@H](OC(=O)[C@H](C)N)C(C)(C)C5CC[C@@]4(C)[C@]2(C)CC3)nc1C (stereo partly drawn) [Compound 6b, 3β-L-Alanine ester olean-12-en-28-oic acid-3,5,6-trimethylpyrazin-2-methyl ester] | 89.7 to 92.1 °C | 2.32 µM | 4.77 µM | 7.69 µM | 5.12 µM | 4.47 µM | – | – | – | – | – | – | – | < 8 µM
5 | Cc1nc(C)c(COC(=O)[C@]23CCC(C)(C)CC2C2=CCC4[C@@]5(C)CC[C@H](OC(=O)[C@@H](N)C(C)C)C(C)(C)C5CC[C@@]4(C)[C@]2(C)CC3)nc1C (stereo partly drawn) [Compound 6f, 3β-L-Valine ester olean-12-en-28-oic acid-3,5,6-trimethylpyrazin-2-methyl ester] | 89.5 to 91 °C | 4.26 µM | 5.96 µM | > 25 µM | 9.79 µM | 9.52 µM | – | – | – | – | – | – | – | –
6 | Cc1nc(C)c(COC(=O)[C@]23CCC(C)(C)CC2C2=CCC4[C@@]5(C)CC[C@H](OC(=O)[C@@H](N)CC(C)C)C(C)(C)C5CC[C@@]4(C)[C@]2(C)CC3)nc1C (stereo partly drawn) [Compound 6d, 3β-L-Leucine ester olean-12-en-28-oic acid-3,5,6-trimethylpyrazin-2-methyl ester] | 89.6 to 91.6 °C | > 25 µM | > 25 µM | > 25 µM | > 25 µM | > 25 µM | – | – | – | – | – | – | – | –
7 | CC[C@H](C)[C@H](N)C(=O)O[C@H]1CC[C@@]2(C)C(CC[C@]3(C)C2CC=C2C4CC(C)(C)CC[C@]4(C(=O)OCc4nc(C)c(C)nc4C)CC[C@]23C)C1(C)C (stereo partly drawn) [Compound 6e, 3β-L-Isoleucine ester olean-12-en-28-oic acid-3,5,6-trimethylpyrazin-2-methyl ester] | 89.8 to 90.7 °C | 5.97 µM | 9.83 µM | > 25 µM | > 25 µM | > 25 µM | – | – | – | – | – | – | – | –

The next lines start with results.

Row | melting point | SMILES | IC50 (HepG2; HepG2, 72 h) | IC50 (HT-29; HT-29, 72 h) | IC50 (Hela; Homo sapiens) | IC50 (MDCK cells [1]; Canis lupus familiaris, MDCK) | IC50 (BGC-823; BGC-823, 72 h) | IC50 at 72 h [2] | Morphological changes of MDCK cells (Giemsa staining) (MDCK cells [3]) | IC50 (HepG2; 72 h) | IC50 (HT-29; 72 h) | IC50 (Hela) | IC50 (MDCK cells [1]) | IC50 (BGC-823; 72 h) | IC50 [4]
8 | 206.9 to 207.7 °C | Cc1nc(C)c(COC(=O)[C@]23CCC(C)(C)CC2C2=CCC4[C@@]5(C)CC[C@H](OC(=O)[C@@H](N)Cc6c[nH]c7ccccc67)C(C)(C)C5CC[C@@]4(C)[C@]2(C)CC3)nc1C (stereo partly drawn) [Compound 6k, 3β-L-Tryptophan ester olean-12-en-28-oic acid-3,5,6-trimethylpyrazin-2-methyl ester] | 11.4 µM | > 25 µM | > 25 µM | 10.8 µM | 10 µM | – | – | – | – | – | – | – | –
9 | 107.1 to 108.5 °C | Cc1nc(C)c(COC(=O)[C@]23CCC(C)(C)CC2C2=CCC4[C@@]5(C)CC[C@H](OC(=O)[C@@H](N)CO)C(C)(C)C5CC[C@@]4(C)[C@]2(C)CC3)nc1C (stereo partly drawn) [Compound 6l, 3β-L-Serine ester olean-12-en-28-oic acid-3,5,6-trimethylpyrazin-2-methyl ester] | 4.78 µM | 4.83 µM | 5.22 µM | 3.12 µM | 4.9 µM | – | – | – | – | – | – | – | < 8 µM
10 | 124.6 to 125.8 °C | Cc1nc(C)c(COC(=O)[C@]23CCC(C)(C)CC2C2=CCC4[C@@]5(C)CC[C@H](OC(=O)[C@@H]6CCC(=O)N6)C(C)(C)C5CC[C@@]4(C)[C@]2(C)CC3)nc1C (stereo partly drawn) [Compound 6j, 3β-L-Pyroglutamate ester olean-12-en-28-oic acid-3,5,6-trimethylpyrazin-2-methyl ester] | – | – | – | – | – | – | – | – | – | – | – | – | –
11 | 81.9 to 82.5 °C | CNCC(=O)O[C@H]1CC[C@@]2(C)C(CC[C@]3(C)C2CC=C2C4CC(C)(C)CC[C@]4(C(=O)OCc4nc(C)c(C)nc4C)CC[C@]23C)C1(C)C (stereo partly drawn) [Compound 6i, 3β-L-Sarcosine ester olean-12-en-28-oic acid-3,5,6-trimethylpyrazin-2-methyl ester] | 10.2 µM | 16.9 µM | 12.6 µM | 15.8 µM | 16 µM | – | – | – | – | – | – | – | –
12 | 82.4 to 83.8 °C | Cc1nc(C)c(COC(=O)[C@]23CCC(C)(C)CC2C2=CCC4[C@@]5(C)CC[C@H](OC(=O)[C@@H](N)Cc6ccccc6)C(C)(C)C5CC[C@@]4(C)[C@]2(C)CC3)nc1C (stereo partly drawn) [Compound 6h, 3β-L-Phenylalanine ester olean-12-en-28-oic acid-3,5,6-trimethylpyrazin-2-methyl ester] | 8.22 µM | 9.5 µM | > 25 µM | 8.12 µM | > 25 µM | – | – | – | – | – | – | – | –
